Measured values published in patent US10168342B2, “Lipid probes and uses thereof” (THE SCRIPPS RESEARCH INSTITUTE, priority 2015, dated 2019).
Where two headings read alike, the source gives them in different places.

How the values were obtained:
[1] = target: T1, AEA-DA lipid probe targets in Neuro2a cells (Mus musculus, UniProt O89023)
T1 sequence (O89023 195-562): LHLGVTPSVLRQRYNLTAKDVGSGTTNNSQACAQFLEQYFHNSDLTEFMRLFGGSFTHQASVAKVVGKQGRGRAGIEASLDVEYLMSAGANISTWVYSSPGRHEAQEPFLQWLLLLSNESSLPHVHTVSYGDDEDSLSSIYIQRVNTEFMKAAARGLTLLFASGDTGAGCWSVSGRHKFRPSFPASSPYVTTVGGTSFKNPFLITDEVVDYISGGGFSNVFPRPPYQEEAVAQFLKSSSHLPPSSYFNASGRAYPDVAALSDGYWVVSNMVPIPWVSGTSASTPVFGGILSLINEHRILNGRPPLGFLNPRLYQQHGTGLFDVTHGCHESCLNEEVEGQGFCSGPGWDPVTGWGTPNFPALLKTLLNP

[2] = target: T2, AEA-DA lipid probe targets in Neuro2a cells (Mus musculus, UniProt Q8CAQ8)
T2 sequence (Q8CAQ8 34-757): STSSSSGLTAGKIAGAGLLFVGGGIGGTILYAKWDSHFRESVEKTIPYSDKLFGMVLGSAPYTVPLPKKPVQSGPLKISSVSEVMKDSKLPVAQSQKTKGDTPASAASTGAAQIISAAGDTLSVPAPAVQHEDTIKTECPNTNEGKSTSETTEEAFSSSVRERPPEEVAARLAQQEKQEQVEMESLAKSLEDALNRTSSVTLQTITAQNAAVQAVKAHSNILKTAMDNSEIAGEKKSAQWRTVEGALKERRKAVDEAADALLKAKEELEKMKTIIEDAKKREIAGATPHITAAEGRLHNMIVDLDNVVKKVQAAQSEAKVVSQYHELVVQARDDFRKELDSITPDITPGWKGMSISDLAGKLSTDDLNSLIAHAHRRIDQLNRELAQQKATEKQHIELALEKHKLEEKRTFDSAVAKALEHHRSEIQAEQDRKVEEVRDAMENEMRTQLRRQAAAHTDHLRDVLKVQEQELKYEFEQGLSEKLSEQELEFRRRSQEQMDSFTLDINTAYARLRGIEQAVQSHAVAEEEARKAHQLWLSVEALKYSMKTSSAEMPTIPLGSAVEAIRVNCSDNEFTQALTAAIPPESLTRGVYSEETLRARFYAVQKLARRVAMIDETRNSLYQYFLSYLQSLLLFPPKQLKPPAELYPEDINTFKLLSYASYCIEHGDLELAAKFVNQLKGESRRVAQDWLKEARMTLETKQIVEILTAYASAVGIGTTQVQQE

[3] = target: T3, AEA-DA lipid probe targets in Neuro2a cells (Mus musculus, UniProt P54071)
T3 sequence (P54071 40-452): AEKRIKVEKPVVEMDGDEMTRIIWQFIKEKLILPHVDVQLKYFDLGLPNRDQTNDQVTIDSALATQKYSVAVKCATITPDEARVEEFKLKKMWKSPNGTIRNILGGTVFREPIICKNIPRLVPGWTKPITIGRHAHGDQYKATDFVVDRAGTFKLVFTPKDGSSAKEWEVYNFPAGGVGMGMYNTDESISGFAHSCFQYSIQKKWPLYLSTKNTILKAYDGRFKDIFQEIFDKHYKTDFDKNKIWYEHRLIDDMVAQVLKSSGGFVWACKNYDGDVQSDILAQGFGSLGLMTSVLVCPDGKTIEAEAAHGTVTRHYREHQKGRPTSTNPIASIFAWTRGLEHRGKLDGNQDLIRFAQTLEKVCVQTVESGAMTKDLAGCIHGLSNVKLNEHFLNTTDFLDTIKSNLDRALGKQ

[4] = target: AEA-DA lipid probe targets in Neuro2a cells (Mus musculus, UniProt Q9ET22)
Chain of AEA-DA lipid probe targets in Neuro2a cells (Mus musculus, UniProt Q9ET22) (Q9ET22 37-506): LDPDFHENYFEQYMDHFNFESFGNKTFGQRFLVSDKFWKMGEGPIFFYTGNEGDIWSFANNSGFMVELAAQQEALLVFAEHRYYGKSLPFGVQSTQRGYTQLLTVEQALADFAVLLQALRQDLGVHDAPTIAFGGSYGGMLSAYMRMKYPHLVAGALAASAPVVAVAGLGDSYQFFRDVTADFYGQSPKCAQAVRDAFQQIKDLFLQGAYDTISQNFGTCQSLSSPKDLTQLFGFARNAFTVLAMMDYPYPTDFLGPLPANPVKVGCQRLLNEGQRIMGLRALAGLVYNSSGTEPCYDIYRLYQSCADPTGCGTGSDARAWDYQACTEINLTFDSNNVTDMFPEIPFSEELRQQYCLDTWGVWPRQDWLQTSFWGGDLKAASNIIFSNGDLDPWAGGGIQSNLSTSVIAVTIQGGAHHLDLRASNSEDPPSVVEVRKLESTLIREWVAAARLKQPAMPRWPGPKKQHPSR

[5] = target: T4, AEA-DA lipid probe targets in Neuro2a cells (Mus musculus, UniProt Q8BMG8)
T4 sequence (Q8BMG8 1-316): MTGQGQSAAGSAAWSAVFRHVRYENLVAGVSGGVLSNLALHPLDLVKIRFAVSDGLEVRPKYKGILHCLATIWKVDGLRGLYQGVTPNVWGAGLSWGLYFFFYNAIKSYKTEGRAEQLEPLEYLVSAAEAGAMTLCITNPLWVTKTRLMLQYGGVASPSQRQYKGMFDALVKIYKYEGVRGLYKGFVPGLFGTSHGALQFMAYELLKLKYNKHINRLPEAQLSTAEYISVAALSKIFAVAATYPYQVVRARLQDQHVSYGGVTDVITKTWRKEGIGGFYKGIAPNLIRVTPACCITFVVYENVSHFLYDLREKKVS

[6] = target: T5, AEA-DA lipid probe targets in Neuro2a cells (Mus musculus, UniProt Q8BXN9)
T5 sequence (Q8BXN9 22-555): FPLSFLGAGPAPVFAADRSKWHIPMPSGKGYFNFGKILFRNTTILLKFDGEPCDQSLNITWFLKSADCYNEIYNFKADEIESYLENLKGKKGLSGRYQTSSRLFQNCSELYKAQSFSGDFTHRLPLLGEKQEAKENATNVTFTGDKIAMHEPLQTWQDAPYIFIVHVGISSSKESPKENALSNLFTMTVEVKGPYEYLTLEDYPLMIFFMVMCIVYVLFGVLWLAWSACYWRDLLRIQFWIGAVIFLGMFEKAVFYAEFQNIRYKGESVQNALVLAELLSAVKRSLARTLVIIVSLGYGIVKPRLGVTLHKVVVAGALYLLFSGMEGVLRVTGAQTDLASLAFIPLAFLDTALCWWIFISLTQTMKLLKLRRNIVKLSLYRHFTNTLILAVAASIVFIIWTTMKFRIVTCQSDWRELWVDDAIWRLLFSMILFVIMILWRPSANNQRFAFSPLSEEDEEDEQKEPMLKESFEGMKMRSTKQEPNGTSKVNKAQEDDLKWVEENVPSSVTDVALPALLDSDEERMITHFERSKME

[7] = system: AEA-DA lipid probe targets in Neuro2a cells; settings: for SILAC ratio, GM20425 (E9Q035): AEA-DA probe
[8] = Neuro2a cells, competitor 25 μM
[9] = competitor 25 μM, first Tmpo line (r51)
[10] = competitor 25 μM, second Tmpo line (r55)

C=CCN(C)CCCCCCOc1ccc(C(=O)c2ccc(Br)cc2)c(F)c1 [Ro 48-8071, reference compound]
SILAC ratio Tpp1 ([1]; competitor 25 μM): 0.8
SILAC ratio Immt ([2]; competitor 25 μM): 1.0
SILAC ratio Idh2 ([3]; competitor 25 μM): 0.9
SILAC ratio Dpp7 ([4]; competitor 25 μM): 0.3
SILAC ratio, Slc25a32 ([5]; competitor 25 μM): 1.1
SILAC ratio, Tmem87a ([6]; competitor 25 μM): 2.3
SILAC ratio, GM20425 (E9Q035) [7, 8]: 1.2
SILAC ratio Akr1c12 ([7]; competitor 25 μM): 0.9
SILAC ratio H2-K1 ([7]; competitor 25 μM): 0.9
SILAC ratio Nup205 ([7]; competitor 25 μM): 0.9
SILAC ratio Uncharacterized ([7]; competitor 25 μM): 1.0
SILAC ratio, Gm20425 ([7]; competitor 25 μM): 1.2
SILAC ratio, Gm20671 ([7]; competitor 25 μM): 1.3
SILAC ratio, Tmpo [7, 9]: 1.2
SILAC ratio, Tmpo [7, 10]: 1.2

CN1CCN(C(=O)c2[nH]c3ccc([N+](=O)[O-])cc3c2-c2ccccc2)CC1 [MJN228, (4-Methylpiperazin-1-yl)(5-nitro-3-phenyl-1H-indol-2-yl)methanone]
SILAC ratio Tpp1 ([1]; competitor 10 μM): 1.4
SILAC ratio Tpp1 ([1]; competitor 25 μM): 1.4
SILAC ratio Tpp1 ([1]; competitor 50 μM): 1.8
SILAC ratio Tpp1 ([1]; competitor 100 μM): 2.0
SILAC ratio Immt ([2]; competitor 10 μM): 1.1
SILAC ratio Immt ([2]; competitor 25 μM): 1.2
SILAC ratio Immt ([2]; competitor 50 μM): 1.1
SILAC ratio Immt ([2]; competitor 100 μM): 1.4
SILAC ratio Idh2 ([3]; competitor 10 μM): 1.3
SILAC ratio Idh2 ([3]; competitor 25 μM): 1.4
SILAC ratio Idh2 ([3]; competitor 50 μM): 1.6
SILAC ratio Idh2 ([3]; competitor 100 μM): 1.6
SILAC ratio Dpp7 ([4]; competitor 10 μM): 1.0
SILAC ratio Dpp7 ([4]; competitor 25 μM): 0.7
SILAC ratio Dpp7 ([4]; competitor 50 μM): 1.0
SILAC ratio Dpp7 ([4]; competitor 100 μM): 0.7
SILAC ratio, Slc25a32 ([5]; competitor 10 μM): 1.5
SILAC ratio, Slc25a32 ([5]; competitor 25 μM): 1.5
SILAC ratio, Slc25a32 ([5]; competitor 50 μM): 1.5
SILAC ratio, Slc25a32 ([5]; competitor 100 μM): 1.9
SILAC ratio, Tmem87a ([6]; competitor 10 μM): 1.3
SILAC ratio, Tmem87a ([6]; competitor 25 μM): 1.9
SILAC ratio, Tmem87a ([6]; competitor 50 μM): 1.6
SILAC ratio, Tmem87a ([6]; competitor 100 μM): 2.7
SILAC ratio, GM20425 (E9Q035) [7, 8]: 1.7
SILAC ratio Nup205 ([7]; competitor 10 μM): 1.0
SILAC ratio Uncharacterized ([7]; competitor 10 μM): 1.1
SILAC ratio, Akr1b10 ([7]; competitor 10 μM): 2.1
SILAC ratio, Gm20425 ([7]; competitor 10 μM): 1.3
SILAC ratio, Tmpo ([7]; competitor 10 μM, first Tmpo line (r51)): 1.1
SILAC ratio, Tmpo ([7]; competitor 10 μM, second Tmpo line (r55)): 1.1
SILAC ratio H2-K1 ([7]; competitor 25 μM): 1.1
SILAC ratio Nup205 ([7]; competitor 25 μM): 1.2
SILAC ratio Uncharacterized ([7]; competitor 25 μM): 1.6
SILAC ratio, Gm20425 ([7]; competitor 25 μM): 1.7
SILAC ratio, Gm20671 ([7]; competitor 25 μM): 1.4
SILAC ratio, Tmpo [7, 9]: 1.4
SILAC ratio, Tmpo [7, 10]: 1.4
SILAC ratio Nup205 ([7]; competitor 50 μM): 1.1
SILAC ratio, Akr1b10 ([7]; competitor 50 μM): 2.6
SILAC ratio, Gm20425 ([7]; competitor 50 μM): 1.7
SILAC ratio, Tmpo ([7]; competitor 50 μM, first Tmpo line (r51)): 1.4
SILAC ratio, Tmpo ([7]; competitor 50 μM, second Tmpo line (r55)): 1.3
SILAC ratio Nup205 ([7]; competitor 100 μM): 1.2
SILAC ratio Uncharacterized ([7]; competitor 100 μM): 3.0
SILAC ratio, Akr1b10 ([7]; competitor 100 μM): 3.2
SILAC ratio, Gm20425 ([7]; competitor 100 μM): 2.9
SILAC ratio, Tmpo ([7]; competitor 100 μM, first Tmpo line (r51)): 2.1
SILAC ratio, Tmpo ([7]; competitor 100 μM, second Tmpo line (r55)): 2.0

CCCCC/C=C\C/C=C\C/C=C\C/C=C\CCCC(=O)NCCO [AEA, anandamide, reference compound]
SILAC ratio Tpp1 ([1]; competitor 200 μM): 1.5
SILAC ratio Immt ([2]; competitor 200 μM): 1.2
SILAC ratio Idh2 ([3]; competitor 200 μM): 1.2
SILAC ratio Dpp7 ([4]; competitor 200 μM): 1.4
SILAC ratio, Slc25a32 ([5]; competitor 200 μM): 1.5
SILAC ratio, Tmem87a ([6]; competitor 200 μM): 1.8
competition of AEA-DA labeling by lipid competitor ([7]; Neuro2a cells, 200 μM): competed with several targets
SILAC ratio, GM20425 (E9Q035) ([7]; Neuro2a cells, competitor 200 μM): 2.3
SILAC ratio Akr1c12 ([7]; competitor 200 μM): 1.8
SILAC ratio Uncharacterized ([7]; competitor 200 μM): 1.7
SILAC ratio, Akr1b10 ([7]; competitor 200 μM): 4.5
SILAC ratio, Gm20425 ([7]; competitor 200 μM): 2.3
SILAC ratio, Gm20671 ([7]; competitor 200 μM): 1.8
SILAC ratio, Tmpo ([7]; competitor 200 μM, first Tmpo line (r51)): 2.0
SILAC ratio, Tmpo ([7]; competitor 200 μM, second Tmpo line (r55)): 1.9

CN1CCN(C(=O)c2c(-c3ccccc3)c3cc([N+](=O)[O-])ccc3n2C)CC1 [KML110, (1-Methyl-5-nitro-3-phenyl-1H-indol-2-yl)(4-methylpiperazin-1-yl)methanone]
SILAC ratio Tpp1 ([1]; competitor 25 μM): 1.5
SILAC ratio Immt ([2]; competitor 25 μM): 1.3
SILAC ratio Idh2 ([3]; competitor 25 μM): 1.3
SILAC ratio Dpp7 ([4]; competitor 25 μM): 1.5
SILAC ratio, Slc25a32 ([5]; competitor 25 μM): 1.5
SILAC ratio, Tmem87a ([6]; competitor 25 μM): 1.8
SILAC ratio Akr1c12 ([7]; competitor 25 μM): 1.2
SILAC ratio H2-K1 ([7]; competitor 25 μM): 1.6
SILAC ratio Nup205 ([7]; competitor 25 μM): 1.2
SILAC ratio Uncharacterized ([7]; competitor 25 μM): 1.1
SILAC ratio, Gm20425 ([7]; competitor 25 μM): 1.5
SILAC ratio, Gm20671 ([7]; competitor 25 μM): 1.4
SILAC ratio, Tmpo [7, 9]: 1.5
SILAC ratio, Tmpo [7, 10]: 1.5
